Assay results taken from article PMC8564858, “Flavonoid-based inhibitors of the Phi-class glutathione transferase from black-grass to combat multiple herbicide resistance” (Organic & Biomolecular Chemistry, 2021).

What was measured:
AmGSTF1 [1] = assay: CDNB assay: inhibition of AmGSTF1-catalysed glutathionylation of CDNB; format: biochemical, Alopecurus myosuroides; conditions: three replicate measurements
[2] = test system: MHR in black-grass plants; assay: Preliminary spray trial with pinoxaden; format: in vivo, Alopecurus myosuroides; conditions: black-grass plants exposed to the herbicide pinoxaden
AmGSTF1 [3] = assay: Ligand fishing with strep-tagged AmGSTF1 immobilised on StrepTactin column; format: binding, Alopecurus myosuroides; conditions: ligand cocktail, each at 100 µM
wheat = assay: Preliminary spray trial, companion crop phytotoxicity; format: in vivo
wildtype AmGSTF1 = format: biochemical, Alopecurus myosuroides; conditions: 100 µM, 60 min at 20 °C, diluted 1:100, activity towards CDNB
AmGSTF1 [4] = assay: Isothermal titration calorimetry; format: binding, Alopecurus myosuroides
Method: Coot and reciprocal space refinement using Refmac. Further experimental detail is summarised in
Molecular docking was performed using the GOLD package with CHEMPLP as the target fitness function
12. The structure of the AmGSTF1 in the tetragonal unit cell with both loops in their closed conformation
was used as a starting model for docking. The ligand (GS-NBF) was removed from the binding site. The
search space was defined by the position of the ligand in the cavity with a margin of 10 and 15 Å,
respectively. The ligands were built with Avogadro [XX]. In each case, the starting geometry minimized
using the MMFF94 forcefield [xx]. Each ligand was docked with 30 independent genetic algorithm using
the diverse solution settings in order to explore a maximum parameter space.
Isothermal Titration Calorimetry
AmGSTF1 was dialysed into HEPES buffer (pH 7.6) overnight at 3 °C and the concentration adjusted to
10 µM in a volume of 3 mL. The activity of the enzyme was calculated prior to use according to the
standard CDNB biochemical assay. A solution of the desired ligand (≥ 10 x protein concentration, 200
µL) was prepared in the same HEPES buffer as above. All samples were degassed for 5 minutes prior to
use using a thermovac at 24 °C. AmGSTF1 was incubated in the cell and the ligand in the syringe, […]
experiment run to completion or until no more titrant was available. The data obtained was analysed […]

[5] = test system: HS black-grass (Rothamsted); assay: Petri-dish seedling assay with pendimethalin; format: in vivo, Alopecurus myosuroides; conditions: 5 ppm pendimethalin alone
MHR black-grass (Peldon) = assay: Petri-dish seedling assay with pendimethalin; format: in vivo, Alopecurus myosuroides; conditions: Peldon-MHR; 5 ppm pendimethalin alone
[6] = Aqueous solubility (qualitative); format: physicochemical
AmGSTF1 [7] = assay: Thermal shift assay; format: binding, Alopecurus myosuroides; conditions: difference in melting temperature compared to no ligand

Compound | CDNB Assay % Inhibition (AmGSTF1 [1]; 10 µM compound) [%] | CDNB Assay % Inhibition (AmGSTF1 [1]; 100 µM compound) [%] | Thermal Shift Assay ∆Tm (AmGSTF1 [7]; 1 µM) | Thermal Shift Assay ∆Tm (AmGSTF1 [7]; 10 µM) | Thermal Shift Assay ∆Tm (AmGSTF1 [7]; 100 µM) | other results
O=c1cc(-c2ccc(O)cc2)oc2cc(O)cc(O)c12 [compound 1, apigenin] | 71 | 87 | – | – | – | Synergistic effect counteracting MHR [2]: clear synergistic effect; Binding/retention by immobilised AmGSTF1 (AmGSTF1 [3]): selectively retained and bound; Phytotoxic effect in companion crop (wheat): no adverse phytotoxic effect
NC(CCC(=O)NC(CSc1ccc([N+](=O)[O-])c2nonc12)C(=O)NCC(=O)O)C(=O)O (stereo not shown) [NBD-SG] | – | – | – | – | – | Inhibition vs. DMSO control (wildtype AmGSTF1): 43%; Mean specific activity (wildtype AmGSTF1; mean ± SD, n = 3): 11.2 ± 1.1 nmol s-1 mg-1 protein; Binding to AmGSTF1 by ITC (AmGSTF1 [4]): binding to AmGSTF1 confirmed
CCC(CC)Nc1c([N+](=O)[O-])cc(C)c(C)c1[N+](=O)[O-] [Pendimethalin, pendimethalin, reference compound] | – | – | – | – | – | Percentage of normal shoot 14 d after treatment [5]: 52%; Percentage of normal shoot 14 d after treatment (MHR black-grass (Peldon)): 82%
O=c1c(O)c(-c2ccc(O)c(O)c2)oc2cc(O)cc(O)c12 [compound 3, quercetin, reference compound] | 44 | 94 | – | – | – | Solubility in aqueous solutions (in words) [6]: high solubility
COc1cc(OC)c2c(=O)cc(-c3nccs3)oc2c1 [compound 23] | 23 | 83 | -0.40 | -0.47 | -0.50 | Solubility in aqueous solutions (in words) [6]: increased solubility
COc1cc(OC)c2c(=O)cc(-c3ccc(F)cc3)oc2c1 [18b] | 23 | 78 | 0.17 | 0.33 | 0.27 | –
COc1cc(OC)c2c(=O)cc(-c3nnn[nH]3)oc2c1 [compound 22] | 13 | 53 | -0.23 | -0.27 | -0.43 | –
COc1cc(NC(=O)c2cc(=O)c3c(OC)cc(OC)cc3o2)cc(OC)c1 [16b] | 19 | 56 | 0.20 | 0.50 | 0.13 | –
